This note sets out measurements from patent US8703975B2, “Aryl (ethanoic) propanoic acid ascorbyl ester, preparation method thereof and medicament containing the same” (Wuxi Hongrui Bio-Pharma-Tech Co., Ltd., priority 2009, dated 2014).

Series [1] can be described thus: Solubility in solvents and water. Type of series: physicochemical.
In series [2] the test system is Arteriovenous Loop Thrombus. The series can be described thus: Arteriovenous loop thrombus in rats, thrombus wet weight and inhibition rate. Type of series: in vivo. The conditions noted are these: 5.4 mg·kg^−1 by gavage for 3 days. As for the experimental part:
Normal rats, half male and half female, were randomly grouped according to table 1. The administration group was given water solution of Sodium Salt L-ascorbic acid-6-O—(S)-ibuprofen ester (pH 7.4) by gavage and the control group was given equivalent pH normal saline for continuous 3 days. The rat was intraperitoneally injected with 350 mg of 8% chloral hydrate per kg for anesthesia 1 h after the last administration, and then fixed in the supine position to separate the right common carotid artery and the left external jugular vein. An early weighed No. 7 operation line (about 8 cm long) was placed in the middle of a 10 cm long polyethylene tube, and then the tube was filled with normal saline and both ends of the tube were connected with an intubation filled with heparin (about 3 cm long), in which one end was inserted into the jugular vein, and the other end was inserted into the common carotid artery. After opening the artery clip, the in vitro loop flow was formed. The blood flow was interrupted after 15 min followed by quickly taking the thrombus and weighing. […]
Statistical analysis: the experimental data was represented as x±s, and the significance of the differences was determined with one-factor analysis of variance. t represented t-test results between the control group and the Sodium Salt L-ascorbic acid-6-O—(S)-ibuprofen ester.

As for `CC(C)Cc1ccc([C@H](C)C(=O)OC[C@H](O)[C@H]2OC(=O)C(O)=C2O)cc1` [Embodiment 1, L-Ascorbic Acid-6-O—(S)-Ibuprofen Ester], the Solubility result in series [1] (in chloroform) is listed as “insoluble”; in series [1] (in cyclohexane), “insoluble”; in series [1] (in ethanol), “soluble”; in series [1] (in methanol), “soluble”; in series [1] (in propylene glycol), “soluble”; in series [1] (in water), “insoluble”.
For the molecule `CC(C)Cc1ccc([C@H](C)C(=O)OC[C@H](O)[C@H]2OC(=O)C(O)=C2[O-])cc1.[Na+]` [Sodium Salt L-Ascorbic Acid-6-O—(S)-Ibuprofen Ester], the solubility in water in series [1] (water) is on record as 12.8 g. In series [2] (1 h after last administration, 15 min loop flow, x±s), the “thrombus wet weight/body weight × 100” value is reported as 10.372 ± 0.801. This molecule yielded a Thrombus inhibition rate in series [2] (versus control group) of 12.9%.
